Experimental data from US11998595B2, “Telomerase polypeptide vaccine for treating cancer” (Ultimovacs AS, priority 2010, dated 2024).

What was measured:
T cells (patient PBMCs) = assay: T-cell proliferation assay (3H-thymidine) of patient PBMC/T cells with hTERT peptides or transfected DC; format: cell-based, human
Experimental: FIG. 1 is a bar graph summarising hTERT T-cell responses detected in pancreas cancer patient vaccinated with DC transfected with hTERT mRNA. In samples from various time points throughout a vaccination schedule, T-cell responses against 24 overlapping hTERT 15-mer peptides were detected. Proliferation in response to peptide-loaded PBMC was measured by ^3H-thymidine incorporation. A stimulation index of >2 is considered an immune response.
Peripheral blood mononuclear cells (PBMCs) were obtained prior to the four standard vaccinations, after 5 weeks and after 12 weeks. PBMCs were also obtained before each monthly booster vaccination. The PBMCs were isolated and frozen as previously described (Kyte et al, 2005). Thawed PBMCs were stimulated once in vitro with tDCs (not with mockDCs) and cultured and then tested in T cell proliferation assays (^3H Thymidine) as previously described (Kyte et al 2006). The T cells were tested in triplicates. Irradiated tDCs and mock-transfected DC controls (mockDCs) were used or PBMC with or without hTERT peptide as APCs. Negative controls with T cells only were included.
PBMCs from various time points were stimulated with an overlapping hTERT 15-mer peptide library or a 30-mer hTERT peptide, all from ProImmune and then tested in proliferation assays as above using irradiated PBMCs as APCs as described in (Bernhardt et al 2006).
T-cell responses to a hTERT peptide library (including the polypeptides from Table 1) were determined for T-cells from 5 patients in addition to the patients reported in Examples 1 and 2. The methods were the same as previously described in Example 1 or in Bernhardt et al 2006. In brief, PBMCs from various time points during vaccination were stimulated with the overlapping hTERT peptide library prior to testing for specific T-cell responses in proliferation assays.
The proliferative T-cell responses of each patient to a series of peptides were then determined as explained in Example 1. The results are tabulated in Table 5 and are shown graphically in FIG. 14 in which the peptide designations are referenced in Table 6 (the results for peptides 726 and GV1001 are shown only for comparison).
(§1) Four patients who were clinical non-responders following a lung cancer diagnosis and a GV1001 (SEQ ID NO. 10) peptide vaccination were studied. These patients were all stage IV lung cancer patients vaccinated with GV1001. […] The proliferative T-cell responses of each patient to a series of peptides were determined in the same manner as in Example 1, at one time point. The peak response of each patient during the study period to peptide GV1001 is also shown which confirms that each patient responded immunologically to GV1001 vaccination.
Six patients who were clinical non-responders following a melanoma cancer diagnosis and a GV1001 peptide (SEQ ID NO. 10) vaccination were studied. These patients were all stage IV melanoma patients and included in the same GV1001 vaccination trial as melanoma patients P7 and P8 who were long term survivors (see Example 6). […] Five of the patients also experienced progressive disease and one patient, designated Melanoma P3, experienced some stabilization of the disease but still had short survival. The proliferative T-cell responses of each patient to a series of peptides were determined in the same manner as in Example 1, at one time point. The peak response of each patient during the study period to peptide GV1001 is also shown which confirms that each patient responded immunologically to GV1001 vaccination.

[1] = test system: stage IV lung cancer patients; assay: Clinical course of vaccinated lung cancer patients; format: in vivo, human; design: key to Clinical response: PD = Progressive disease; SD = Stable disease; PR = Partial response; CR = Complete response
Experimental: (§2) A comparison of the patients studied in Example 4 was carried out. In brief, seven patients were identified as clinical responders following a cancer diagnosis and vaccination with an hTERT vaccine. These patients were identified based on a combination of prolonged survival and clinical response. The clinical response could either be stable disease (SD), partial response (PR) or complete response (CR). The vaccinated melanoma patients were diagnosed with stage IV at the time of inclusion in the clinical trial, but had no brain metastases. Lung cancer patient P5 was diagnosed with stage IV, inoperable lung cancer and colon cancer patient P1 with late stage inoperable colon cancer. Lung cancer patient P6 was a stage IV lung cancer patient with a 12-week life expectancy. Pancreas cancer patient P1 had relapsed, inoperable pancreas cancer and a life expectancy of 8-10 months. Four of the patients (designated Melanoma P7-P8, Lung cancer P5 and Colon cancer P1) had each been vaccinated with the peptide GV1001 (SEQ ID NO. 10). The fifth patient (designated Lung cancer P6) and the sixth patient (designated Pancreas cancer 1) had been vaccinated with dendritic cells transfected with mRNA encoding hTERT. The seventh patient, Melanoma patient P9, had not been vaccinated at the time of the study and instead developed a spontaneous response following development of the cancer. (An eighth and final patient was also identified as a clinical responder but samples from this patient were not available for study.)
as §1
(§3) The patients were classed as either clinical responders or clinical non-responders based on their clinical response which included stable disease (SD), tumour regression (PR or CR) and unexpectedly long survival time. Both clinical responders and clinical non-responders were selected from the same or similar vaccination trials.

[2] = test system: late stage inoperable colon cancer patient; assay: Clinical course of vaccinated colon cancer patient; format: in vivo, human; details: patient Colon ca P1
Experimental: as §2, §3

## EARPALLTSRLRFIPK (listed as Homo sapiens) [GV1001]
T cells (patient PBMCs); all patients of Example 6
  SI of response: > 2
T cells (patient PBMCs); all patients of Examples 1 to 8
  immunological response of patients: All patients responded immunologically
T cells (patient PBMCs); patient Colon ca P1, GV1001-vaccinated, clinical responder
  proliferative T-cell response (SI): 105.1
T cells (patient PBMCs); patient Lung ca P1, GV1001-vaccinated, clinical non-responder, one time point
  proliferative T-cell response (SI): 0.9
T cells (patient PBMCs); patient Lung ca P1, peak during study period
  Peak response GV1001: 60.95
T cells (patient PBMCs); patient Lung ca P2, GV1001-vaccinated, clinical non-responder, one time point
  proliferative T-cell response (SI): 122.8
T cells (patient PBMCs); patient Lung ca P2, peak during study period
  Peak response GV1001: 122.8
T cells (patient PBMCs); patient Lung ca P3, GV1001-vaccinated, clinical non-responder, one time point
  proliferative T-cell response (SI): 1.4
T cells (patient PBMCs); patient Lung ca P3, peak during study period
  Peak response GV1001: 161.6
T cells (patient PBMCs); patient Lung ca P4, GV1001-vaccinated, clinical non-responder, one time point
  proliferative T-cell response (SI): 1.2
T cells (patient PBMCs); patient Lung ca P4, peak during study period
  Peak response GV1001: 13.3
T cells (patient PBMCs); patient Lung ca P5, GV1001-vaccinated, clinical responder
  proliferative T-cell response (SI): 20.1
T cells (patient PBMCs); patient Lung ca P6, DC/hTERT mRNA-vaccinated, clinical responder, high background
  proliferative T-cell response (SI): 7.1
T cells (patient PBMCs); patient Melanoma P1, GV1001-vaccinated, clinical non-responder, one time point
  proliferative T-cell response (SI): 1.4
T cells (patient PBMCs); patient Melanoma P1, peak during study period
  Peak response GV1001: 26.0
T cells (patient PBMCs); patient Melanoma P2, GV1001-vaccinated, clinical non-responder, one time point
  proliferative T-cell response (SI): 0.9
T cells (patient PBMCs); patient Melanoma P2, peak during study period
  Peak response GV1001: 38.7
T cells (patient PBMCs); patient Melanoma P3, GV1001-vaccinated, clinical non-responder, one time point
  proliferative T-cell response (SI): 1.8
T cells (patient PBMCs); patient Melanoma P3, peak during study period
  Peak response GV1001: 3.7
T cells (patient PBMCs); patient Melanoma P4, GV1001-vaccinated, clinical non-responder, one time point
  proliferative T-cell response (SI): 1.2
T cells (patient PBMCs); patient Melanoma P4, peak during study period
  Peak response GV1001: 10.7
T cells (patient PBMCs); patient Melanoma P5, GV1001-vaccinated, clinical non-responder, one time point
  proliferative T-cell response (SI): 25.2
T cells (patient PBMCs); patient Melanoma P5, peak during study period
  Peak response GV1001: 35.4
T cells (patient PBMCs); patient Melanoma P6, GV1001-vaccinated, clinical non-responder, one time point
  proliferative T-cell response (SI): 21.4
T cells (patient PBMCs); patient Melanoma P6, peak during study period
  Peak response GV1001: 122.0
T cells (patient PBMCs); patient Melanoma P7, GV1001-vaccinated, clinical responder
  proliferative T-cell response (SI): 76.5
T cells (patient PBMCs); patient Melanoma P8, GV1001-vaccinated, clinical responder
  proliferative T-cell response (SI): 13.2
T cells (patient PBMCs); patient Melanoma P9, non-vaccinated, spontaneous response
  proliferative T-cell response (SI): 1.7
T cells (patient PBMCs); patient Pancreas ca P1, DC/hTERT mRNA-vaccinated, clinical responder, high background
  proliferative T-cell response (SI): 2.2
[1]; patient Lung ca P1
  Clinical Responder: No
  Clinical response: PD
  Survival (Months): 14 Months
  Vaccine-specific T cell response at time-point tested: Yes
[1]; patient Lung ca P2
  Clinical Responder: No
  Clinical response: PD
  Survival (Months): 6 Months
  Vaccine-specific T cell response at time-point tested: Yes
[1]; patient Lung ca P3
  Clinical Responder: No
  Survival (Months): 20 Months
  Vaccine-specific T cell response at time-point tested: Yes
[1]; patient Lung ca P4
  Clinical Responder: No
  Survival (Months): 10 Months
  Vaccine-specific T cell response at time-point tested: Yes
[1]; patient Lung ca P5
  Clinical Responder: Yes
  Clinical response: alive, CR
  Vaccine-specific T cell response at time-point tested: Yes
[1]; patient Lung ca P5, + signifies that the patient is still alive
  Survival (Months): 106+ Months
[2]
  Clinical Responder: Yes
  Clinical response: alive, CR
  Vaccine-specific T cell response at time-point tested: Yes
[2]; + signifies that the patient is still alive
  Survival (Months): 80+ Months
